# Assay results taken from patent US10689354B2, “Aminoazole derivative” (Teijin Pharma Limited, priority 2015, dated 2020).
# Tests used:
# [1] = target: T1, androgen receptor (AR-LBD) (Rattus norvegicus, UniProt P15207); experiment: Evaluation of androgen receptor affinity (PolarScreen Androgen Receptor Competitor Assay Kit, Red; fluorescence polarization); conditions: 22° C. for 5 hours, relative to binding rate of 1 μM DHT, read-out: AR affinity (pEC50) (converted)
# T1 construct: 5 μL of 2×AR-LBD/Fluoromone AL Red Complex contained in the kit; purchased Invitrogen
# T1 sequence (P15207 651-882 limits assumed): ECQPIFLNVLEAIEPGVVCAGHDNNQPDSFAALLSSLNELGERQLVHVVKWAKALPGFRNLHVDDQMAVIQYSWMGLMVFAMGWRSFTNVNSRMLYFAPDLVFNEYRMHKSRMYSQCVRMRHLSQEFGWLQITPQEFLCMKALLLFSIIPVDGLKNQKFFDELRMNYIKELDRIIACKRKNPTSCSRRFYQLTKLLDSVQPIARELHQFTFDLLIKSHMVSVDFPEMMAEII
# Outline: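 Duplicate wells of test compound were mixed with the kit's rat AR-LBD–Fluoromone AL Red tracer complex and left 5 hours at 22 °C before polarization was read. A 4-parameter fit gave pEC50, with binding rate referenced to 1 μM dihydrotestosterone.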
# human androgen receptor = target: T2, human androgen receptor (Homo sapiens, UniProt P10275); experiment: Reporter assay of an androgen receptor responsive sequence (luciferase, transiently transfected HEK293 cells); format: cell-based; conditions: 24 hours incubation, relative to activity of 100 nM DHT, read-out: AR transcriptive activity (pEC50) (converted)
# T2 construct: expressed in transfected cells; host or cells: HEK293
# T2 sequence (P10275 1-920): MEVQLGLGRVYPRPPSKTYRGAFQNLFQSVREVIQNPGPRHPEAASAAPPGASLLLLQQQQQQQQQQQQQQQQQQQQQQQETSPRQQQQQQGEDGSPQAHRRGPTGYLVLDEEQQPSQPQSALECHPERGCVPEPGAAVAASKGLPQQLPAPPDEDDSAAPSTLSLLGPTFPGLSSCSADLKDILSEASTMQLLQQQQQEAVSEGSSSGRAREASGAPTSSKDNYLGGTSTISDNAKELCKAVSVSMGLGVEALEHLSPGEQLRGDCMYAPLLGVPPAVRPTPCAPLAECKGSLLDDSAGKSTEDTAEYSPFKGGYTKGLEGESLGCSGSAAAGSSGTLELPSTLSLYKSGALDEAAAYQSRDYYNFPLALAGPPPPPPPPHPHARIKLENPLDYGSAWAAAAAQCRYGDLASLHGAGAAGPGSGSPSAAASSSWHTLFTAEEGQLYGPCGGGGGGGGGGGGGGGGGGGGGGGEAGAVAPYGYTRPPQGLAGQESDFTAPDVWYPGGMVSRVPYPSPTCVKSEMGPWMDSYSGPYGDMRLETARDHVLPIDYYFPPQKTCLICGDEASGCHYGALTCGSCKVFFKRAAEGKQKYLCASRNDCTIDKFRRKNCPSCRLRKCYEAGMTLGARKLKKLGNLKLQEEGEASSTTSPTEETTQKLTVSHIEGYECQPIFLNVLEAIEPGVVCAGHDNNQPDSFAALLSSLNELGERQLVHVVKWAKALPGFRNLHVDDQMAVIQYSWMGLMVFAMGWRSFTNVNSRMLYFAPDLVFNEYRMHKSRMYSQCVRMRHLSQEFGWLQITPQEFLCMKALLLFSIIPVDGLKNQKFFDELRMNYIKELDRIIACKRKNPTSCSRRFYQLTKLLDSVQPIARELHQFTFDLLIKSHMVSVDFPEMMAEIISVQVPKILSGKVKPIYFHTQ
# Outline: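 Agonism scored as pEC50, fitted by 4-parameter curve against the response to 100 nM DHT, from dual-luciferase readout after 24 h compound treatment. Cells were HEK293 co-transfected (3 h) with human AR expression vector, androgen-responsive firefly reporter and Renilla control, in charcoal-stripped serum.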
EC50 [1],EC50 (human androgen receptor),Compound
63.1 nM,501 nM,"Cc1sc(N(Cc2ccc(Br)cc2Cl)c2ccc(C#N)cc2)nc1C(=O)NS(C)(=O)=O [Example 183, 2-[N-[(4-bromo-2-chloro-phenyl)methyl]-4-cyano-anilino]-5-methyl-N-methylsulfonyl-thiazole-4-carboxamide]"
501 nM,> 10000 nM,"Cc1sc(N(Cc2ccc(Cl)cc2C#N)c2ccc(C#N)cc2)nc1C(=O)NS(C)(=O)=O [Example 184, 2-[N-[(4-chloro-2-cyano-phenyl)methyl]-4-cyano-anilino]-5-methyl-N-methylsulfonyl-thiazole-4-carboxamide]"
39.8 nM,63.1 nM,"Cc1sc(N(Cc2ccc(Br)cc2F)c2ccc(C#N)cc2)nc1C(=O)NS(C)(=O)=O [Example 185, 2-[N-[(4-bromo-2-fluoro-phenyl)methyl]-4-cyano-anilino]-5-methyl-N-methylsulfonyl-thiazole-4-carboxamide]"
200 nM,631 nM,"Cc1sc(N(Cc2cc(C(F)(F)F)ccn2)c2ccc(C#N)cc2)nc1C(=O)NS(C)(=O)=O [Example 186, 2-[4-cyano-N-[[4-(trifluoromethyl)-2-pyridyl]methyl]anilino]-5-methyl-N-methylsulfonyl-thiazole-4-carboxamide]"
63.1 nM,79.4 nM,"Cc1sc(N(Cc2ccc(C(F)(F)F)c(C#N)c2)c2ccc(C#N)cc2)nc1C(=O)NS(C)(=O)=O [Example 187, 2-[4-cyano-N-[[3-cyano-4-(trifluoromethyl)phenyl]methyl]anilino]-5-methyl-N-methylsulfonyl-thiazole-4-carboxamide]"
316 nM,200 nM,"COCCCS(=O)(=O)NC(=O)c1nc(N(Cc2ccc(Br)cn2)c2ccc(C#N)cc2)sc1C [Example 188, 2-[N-[(5-bromo-2-pyridyl)methyl]-4-cyano-anilino]-N-(3-methoxypropylsulfonyl)-5-methyl-thiazole-4-carboxamide]"
31.6 nM,158 nM,"COCCCS(=O)(=O)NC(=O)c1nc(N(Cc2ccc(OC(F)F)c(Cl)c2)c2ccc(C#N)cc2)sc1C [Example 189, 2-[N-[[3-chloro-4-(difluoromethoxy)phenyl]methyl]-4-cyano-anilino]-N-(3-methoxypropylsulfonyl)-5-methyl-thiazole-4-carboxamide]"
15.8 nM,63.1 nM,"COCCCS(=O)(=O)NC(=O)c1nc(N(Cc2ccc(Cl)c(Cl)c2)c2ccc(C#N)cc2)sc1C [Example 190, 2-[4-cyano-N-[(3,4-dichlorophenyl)methyl]anilino]-N-(3-methoxypropylsulfonyl)-5-methyl-thiazole-4-carboxamide]"
31.6 nM,50.1 nM,"COCCCS(=O)(=O)NC(=O)c1nc(N(Cc2ccc(Br)cc2)c2ccc(C#N)cc2)sc1C [Example 191, 2-[N-[(4-bromophenyl)methyl]-4-cyano-anilino]-N-(3-methoxypropylsulfonyl)-5-methyl-thiazole-4-carboxamide]"
63.1 nM,1260 nM,"COCCCS(=O)(=O)NC(=O)c1nc(N(Cc2ccc(F)cc2Cl)c2ccc(C#N)cc2)sc1C [Example 192, 2-[N-[(2-chloro-4-fluoro-phenyl)methyl]-4-cyano-anilino]-N-(3-methoxypropylsulfonyl)-5-methyl-thiazole-4-carboxamide]"
31.6 nM,501 nM,"Cc1sc(N(Cc2ccc(Cl)cc2OC(F)F)c2ccc(C#N)cc2)nc1C(=O)NS(C)(=O)=O [Example 193, 2-[N-[[4-chloro-2-(difluoromethoxy)phenyl]methyl]-4-cyano-anilino]-5-methyl-N-methylsulfonyl-thiazole-4-carboxamide]"
63.1 nM,2510 nM,"COCCCS(=O)(=O)NC(=O)c1nc(N(Cc2ccc(Cl)cc2OC(F)F)c2ccc(C#N)cc2)sc1C [Example 194, 2-[N-[[4-chloro-2-(difluoromethoxy)phenyl]methyl]-4-cyano-anilino]-N-(3-methoxypropylsulfonyl)-5-methyl-thiazole-4-carboxamide]"
